Reference: patent US5532240A, “Condensed thiophene compound and pharmaceutical use thereof” (Yoshitomi Pharmaceutical Industries, Ltd., priority 1991, dated 1996)
pKi: −log10 of the molar value. Entries after “also recorded” stand apart in the source; their conditions may differ. Like-named read-outs stand apart in the source and are kept apart here.

Key:
dopamine 2 (D2) receptor = target: T1, dopamine 2 (D2) receptor (Rattus norvegicus, UniProt P61169); assay: Affinity for dopamine 2 receptor (tritiated spiperone binding); parameters: species or system Wistar rats; details: rat corpus striatum synaptosomes; [3H]spiperone 0.2 nM; 37° C., 20 min
T1 construct: A synaptosome fraction was separated from corpus striatum; from tissue; host or cells: corpus striatum of 9-10 week-old Wistar rats, synaptosome fraction
T1 sequence (P61169 whole entry): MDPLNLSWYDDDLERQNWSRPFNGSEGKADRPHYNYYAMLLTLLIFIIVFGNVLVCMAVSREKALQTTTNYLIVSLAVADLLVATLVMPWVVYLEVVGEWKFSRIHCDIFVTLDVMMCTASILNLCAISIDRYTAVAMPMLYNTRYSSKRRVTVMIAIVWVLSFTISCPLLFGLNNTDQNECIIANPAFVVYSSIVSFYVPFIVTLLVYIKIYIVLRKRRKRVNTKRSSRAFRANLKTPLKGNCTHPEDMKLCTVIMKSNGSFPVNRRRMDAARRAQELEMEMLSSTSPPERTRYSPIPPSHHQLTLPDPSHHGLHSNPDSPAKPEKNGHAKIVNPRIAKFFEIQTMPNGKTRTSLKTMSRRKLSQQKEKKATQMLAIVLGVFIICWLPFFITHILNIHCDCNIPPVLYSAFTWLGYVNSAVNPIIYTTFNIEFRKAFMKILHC
Procedure: Affinity for dopamine 2 receptor
A specific binding of dopamine 2 (D2) receptor was tested according to the method described in Eur. J. Pharmacol. 46, 377 (1977).
A synaptosome fraction was separated from corpus striatum of 9-10 week-old Wistar rats, and suspended in 50 mM Tris-HCl buffer (pH 7.1) containing 120 mM sodium chloride, 5 mM potassium chloride, 2 mM calcium chloride, 1 mM magnesium chloride, 10 μM pargyline and 0.1% ascorbic acid for the experiment.
The test compound at several concentrations and tritiated spiperone (final concentration 0.2 nM) were added to the synaptosome suspension, and each mixture was incubated at 37° C. for 20 minutes. After the incubation, the mixture was filtered with suction through Whatman GF/B (trade mark) glass filter. The filter was washed with 50 mM Tris-HCl buffer (pH 7.7), and the radioactivity of the filter was measured by a liquid scintillation counter. Non-specific binding was determined in the presence of 10^-4 M (±)-sulpiride. The concentration necessary for 50% inhibition (IC50) was determined on a graph, and inhibition constant (Ki value) was calculated.

[1] = target: T2, serotonin 2 (5-HT2) receptor (Rattus norvegicus, UniProt P14842); assay: Affinity for serotonin 2 receptor (tritiated ketanserin binding); parameters: species or system Wistar rats; details: rat hippocampus crude synaptosomes; [3H]ketanserin 0.2 nM; 37° C., 20 min
T2 construct: A crude synaptosome fraction was separated from hippocampus; from tissue; host or cells: hippocampus of 9-10 week-old Wistar rats, crude synaptosome fraction
T2 sequence (P14842 whole entry): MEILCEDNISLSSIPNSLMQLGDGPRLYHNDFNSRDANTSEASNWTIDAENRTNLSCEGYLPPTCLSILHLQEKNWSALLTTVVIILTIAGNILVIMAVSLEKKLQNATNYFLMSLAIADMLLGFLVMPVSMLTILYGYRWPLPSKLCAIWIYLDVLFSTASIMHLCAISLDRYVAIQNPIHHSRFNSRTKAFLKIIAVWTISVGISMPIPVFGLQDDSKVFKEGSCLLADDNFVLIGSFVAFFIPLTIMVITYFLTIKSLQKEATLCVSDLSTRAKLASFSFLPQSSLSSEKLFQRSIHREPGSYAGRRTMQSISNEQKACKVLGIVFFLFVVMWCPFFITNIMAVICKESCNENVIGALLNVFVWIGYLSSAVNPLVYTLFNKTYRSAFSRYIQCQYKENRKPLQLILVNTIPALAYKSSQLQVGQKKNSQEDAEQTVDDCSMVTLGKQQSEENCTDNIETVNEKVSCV
Procedure: Affinity for serotonin 2 receptor
A specific binding of serotonin 2 (5-HT2) receptor was tested according to the method described in Mol. Pharmacol. 21, 301 (1981).
A crude synaptosome fraction was separated from hippocampus of 9-10 week-old Wistar rats, and suspended in 50 mM Tris-HCl buffer (pH 7.7) for the experiment. The test compound at several concentration and tritiated ketanserin (final concentration 0.2 nM) were added to the synaptosome suspension, and each mixture was incubated at 37° C. for 20 minutes. After the incubation, the mixture was filtered with suction through Whatman GF/B (trade mark) glass filter. The filter was washed with 50 mM Tris-HCl buffer (pH 7.7), and the radioactivity of the filter was measured by a liquid scintillation counter. Non-specific binding was determined in the presence of 10^-5 M mianserin. The concentration necessary for 50% inhibition (IC50) was determined on a graph, and inhibition constant (Ki value ) was calculated.

[2] = target: T3, serotonin 1A (5-HT1A) receptor (Rattus norvegicus, UniProt P19327); assay: Affinity for serotonin 1A receptor (tritiated 8-OH-DPAT binding); parameters: species or system Wistar rats; details: rat hippocampus crude synaptosomes; [3H]8-OH-DPAT 0.2 nM; 37° C., 12 min
T3 construct: A crude synaptosome fraction was separated from hippocampus; from tissue; host or cells: hippocampus of 9-10 week-old Wistar rats, crude synaptosome fraction
T3 sequence (P19327 1-422): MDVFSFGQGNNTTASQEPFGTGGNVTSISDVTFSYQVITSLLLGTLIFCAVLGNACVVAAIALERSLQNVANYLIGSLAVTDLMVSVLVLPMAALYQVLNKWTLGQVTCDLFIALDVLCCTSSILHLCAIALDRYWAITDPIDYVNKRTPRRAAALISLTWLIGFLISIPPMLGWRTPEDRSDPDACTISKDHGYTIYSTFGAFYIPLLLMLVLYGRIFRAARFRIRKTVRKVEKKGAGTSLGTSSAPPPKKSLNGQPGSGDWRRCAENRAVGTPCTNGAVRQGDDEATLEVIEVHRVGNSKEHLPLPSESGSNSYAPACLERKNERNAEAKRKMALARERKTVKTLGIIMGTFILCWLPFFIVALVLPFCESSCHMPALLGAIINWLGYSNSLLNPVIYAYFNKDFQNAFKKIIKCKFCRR
Procedure: Affinity for serotonin 1A receptor
A specific binding of serotonin 1A (5-HT1A) receptor was tested according to the method described in J. Neurochem. 44, 1685 (1985).
A crude synaptosome fraction was separated from hippocampus of 9-10 week-old Wistar rats, and suspended in 50 mM Tris-HCl buffer (pH 7.4) containing 1 mM manganese chloride for the experiment. The test compound at several concentrations and tritiated 8-hydroxy-2-dipropyl-aminotetralin(8-OH-DPAT, final concentration 0.2 nM) were added to the synaptosome suspension, and each mixture was incubated at 37° C. for 12 minutes. After the incubation, the mixture was filtered with suction through Whatman GF/B (trade mark) glass filter. The filter was washed with 50 mM Tris-HCl buffer (pH 7.7), and the radioactivity of the filter was measured by a liquid scintillation counter. Non-specific binding was determined in the presence of 10^-5 M serotonin (5-HT). The concentration necessary for 50% inhibition (IC50) was determined on a graph, and inhibition constant (Ki value) was calculated.

[3] = test system: apomorphine-induced hyperactivity; assay: Anti-apomorphine action (in mouse); format: in vivo, male dd mice; details: oral, 60 min before 0.5 mg/kg s.c. apomorphine hydrochloride, movement lowered by 50%
Procedure: Anti-apomorphine action (in mouse)
Male dd mice at 3 per group were used for the experiment. The test compound was orally administered to the mice, and 60 minutes later, 0.5 mg/kg of apomorphine hydrochloride was subcutaneously administered. the movement for 20 minutes from immediately after the administration of apomorphine hydrochloride was measured using Valimex (Columbus, USA). Each group was tested four times, and the amount of the test compound necessary to lower the movement by 50% than that of a control group was calculated from a graph and taken as ED50.

[4] = test system: ergometrine-induced head-twitches; assay: Anti-ergometrine action (head-twitch); format: in vivo, male ddY mice; details: Mus musculus; oral, 60 min before 20 mg/kg i.p. ergometrine maleate; head-twitch vanished, Probit
Procedure: Male ddY mice at 12 per group were used for the experiment. The test compound was orally administered to the mice, and 60 minutes later, 20 mg/kg of ergometrine maleate was intraperitoneally administered. The amount of the test compound necessary to vanish the head-twitch reaction for 10 minutes from immediately after the administration of ergometrine maleate was calculated as ED50 value by Probit method.

D2 = details: cited from earlier work
[5] = test system: negative symptoms, EPS, depression and internal secretion in patients; details: cited from earlier work
[6] = test system: catalepsy induced by haloperidol; details: preclinical; cited from earlier work

SMILES | pKi (dopamine 2 (D2) receptor) | pKi [1] | pKi [2] | ED50 [3] [mg/kg] | ED50 [4] [mg/kg] | D2 receptor antagonistic properties (D2) | EPS / side-effects in clinical use [5] | clinical effect on symptoms [5] | EPS / side-effects in clinical use ([5]; listed as risperidone) | effect on catalepsy induced by haloperidol [6]
O=C1CCCc2sc(CCN3CCC(c4noc5cc(F)ccc45)CC3)cc2N1 [Example 15, 2-(2-(4-(6-fluoro-1,2-benzisoxazol-3-yl)piperidin-1-yl)ethyl)-4,6,7,8-tetrahydro-5H-thieno[3,2-b]azepin-5-one] | 10.19 | 9.49 | 8.80 | 0.063 | 0.089 |  |  |  |  | 
Cc1sc2c(c1CCN1CCC(c3noc4cc(F)ccc34)CC1)NC(=O)CCC2 [Example 22, 3-(2-(4-(6-fluoro-1,2-benzoxazolyl-3-yl)piperidin-1-yl)ethyl)-2-methyl-4,6,7,8-tetrahydro-5H-thieno[3,2-b]azepin-5-one] | 9.28 | 9.68 | 7.82 | 1.1 | 1.5 |  |  |  |  | 
CCc1sc2c(c1CCN1CCC(c3noc4cc(F)ccc34)CC1)CCN(C(C)=O)C2 [Example 32, 6-acetyl-2-ethyl-3-(2-(4-(6-fluoro-1,2-benzisoxazol-3-yl)piperidin-1-yl)ethyl)-4,5,6,7-tetrahydrothieno[2,3-c]pyridine] | 10.00 | 10.07 | 7.27 |  |  |  |  |  |  | 
CC(=O)N1CCc2c(sc(CCN3CCC(c4noc5cc(F)ccc45)CC3)c2C)C1 [Example 42, 6-acetyl-2-(2-(4-(6-fluoro-1,2-benzisoxazol-3-yl)piperidin-1-yl)ethyl)-4,5,6,7-tetrahydro-3-methylthieno[2,3-c]pyridine] | 9.64 | 9.70 | 8.96 | 0.2 | 0.19 |  |  |  |  | 
CC(=O)N1CCc2cc(C(=O)CCCN3CCC(c4noc5cc(F)ccc45)CC3)sc2C1 [Example 43, 6-acetyl-2-(4-(4-(6-fluoro-1,2-benzisoxazol-3-yl)piperidin-1-yl)butyryl)-4,5,6,7-tetrahydrothieno[2,3-c]pyridine] | 8.82 | 9.96 | 7.06 |  |  |  |  |  |  | 
CC(=O)N1CCc2c(sc(C)c2CCN2CCC(c3csc4cc(F)ccc34)CC2)C1 [Example 53, 6-acetyl-3-(2-(4-(6-fluorobenzo(b)thiophen-3-yl)piperidin-1-yl)ethyl)-4,5,6,7-tetrahydro-2-methylthieno[2,3-c]pyridine] | 9.82 | 10.37 | 8.43 |  |  |  |  |  |  | 
CCc1c(CCN2CCC(c3noc4cc(F)ccc34)CC2)sc2c1CCN(C(C)=O)C2 [Example 73, 6-acetyl-2-(2-(4-(6-fluoro-1,2-benzisoxazol-3-yl)piperidin-1-yl)ethyl)-3-ethyl-4,5,6,7-tetrahydrothieno[2,3-c]pyridine] | 9.60 | 10.09 | 9.80 | 0.25 | 0.35 |  |  |  |  | 
CCc1c(CCN2CCC(c3csc4cc(F)ccc34)CC2)sc2c1CCN(C(C)=O)C2 [Example 84, 6-acetyl-3-ethyl-2-(2-(4-(6-fluorobenzo-(b)thiophen-3-yl)piperidin-1-yl)ethyl)-4,5,6,7-tetrahydrothieno[2,3-c]pyridine] | 9.68 | 9.74 | 9.89 | 0.73 | 0.95 |  |  |  |  | 
CCc1c(CCN2CCC(c3coc4cc(F)ccc34)CC2)sc2c1CCN(C(C)=O)C2 [Example 85, 6-acetate-3-ethyl-2-(2-(4-(6-fluorobenzo(b)furan-3-yl)piperidin-1-yl)ethyl)-4,5,6,7-tetrahydro-thieno[2,3-c]pyridine] | 9.28 | 9.42 | 9.51 | 0.79 | 0.52 |  |  |  |  | 
CCc1c(CCN2CCC(c3nsc4cc(F)ccc34)CC2)sc2c1CCN(C(C)=O)C2 [Example 86, 6-acetyl-3-ethyl-2-(2-(4-(6-fluoro-1,2-benzisothiazol-3-yl)piperidin-1-yl)ethyl)-4,5,6,7-tetrahydrothieno[2,3-c]pyridine] | 9.77 | 10.04 | 9.23 | 0.54 | 0.27 |  |  |  |  | 
CCc1c(CCN2CCC(c3coc4ccc(C)cc34)CC2)sc2c1CCN(C(C)=O)C2 [Example 145, 6-acetyl-3-ethyl-2-(2-(4-(5-methylbenzo(b)-furan-3-yl)piperidin-1-yl)ethyl)-4,5,6,7-tetrahydrothieno[2,3-c]pyridine] | 8.42 | 8.55 | 9.85 |  |  |  |  |  |  | 
O=C1CCCc2sc(CCN3CCC(c4coc5cc(F)ccc45)CC3)cc2N1 [Example 147, 2-(2-(4-(6-fluorobenzo(b)furan-3-yl)piperidin-1-yl)ethyl)-4,6,7,8-tetrahydro-5H-thieno[3,2-b]azepin-5-one] | 9.40 | 9.07 | 9.49 |  |  |  |  |  |  | 
Cc1ccc2occ(C3CCN(CCc4cc5c(s4)CCCC(=O)N5)CC3)c2c1 [Example 148, 2-(2-(4-(5-methylbenzo(b)furan-3-yl)piperidin-1-yl)ethyl)-4,6,7,8-tetrahydro-5H-thieno[3,2-b]azepin-5-one] | 8.64 | 8.07 | 9.62 |  |  |  |  |  |  | 
Cc1nc2n(c(=O)c1CCN1CCC(c3noc4cc(F)ccc34)CC1)CCCC2 [Risperidone] |  |  |  |  |  | potent | low EPS liability | effective antipsychotic; also recorded: beneficial effects on the negative symptoms of schizophrenia | EPS is appeared in high dose; also recorded: side-effect of internal secretion | 
O=C1CC2(CCCC2)CC(=O)N1CCCCN1CCN(c2ncccn2)CC1 [buspirone] |  |  |  |  |  |  |  | improved the depression and EPS caused by haloperidol therapy |  | reverse catalepsy induced by haloperidol
Cc1nc2sccn2c(=O)c1CCN1CCC(=C(c2ccc(F)cc2)c2ccc(F)cc2)CC1 [ritanserin] |  |  |  |  |  |  | reduces the incidence of EPS caused by typical antipsychotic drug therapy | ameliorates negative symptoms |  | 
